In a melting point compilation (Tetko et al.; mined from patent text by program, amines drawn as free bases though some values may be those of a salt):

| Compound | melting point [°C] |
| --- | --- |
| CC1CC(=O)NN=C1c1ccc(N2CCC(CN)CC2)c([N+](=O)[O-])c1 (stereo not given) | 131 to 132 |
| COC(=O)C(C(C)=O)=C(N)C(F)(F)F | 63 to 65 |
| Nc1sc2cccnc2c1N | 204 to 209 |
| NCCNC(=O)c1cc2c(Oc3ccc(Cl)cc3)cncc2s1 | 111 to 114 |
| Cc1cc(C)c(N=c2cc(-c3ccc(O)c(O)c3)n(C)c(=O)n2C)c(C)c1 | 222 to 225 |
| CCC(=O)C1=CCC(c2c(C)c(C)c3c(c2Cl)CC(C)(CC)C3)CC1=O (stereo not given) | 55 to 57 |
| Cc1c(Nc2c(C#N)cncc2-c2cnc(C=O)n2C)ccc2[nH]ccc12 | 200 to 202 |
| O=C(Nc1ccc2[nH]ncc2c1)O[C@H](c1ccc(Cl)c(Cl)c1)[C@H]1CCCCN1 | 210 |
| O=C(O)c1cc(F)c(O)nc1Nc1ccc(F)cc1F | 213 to 216 |
| Cc1cc(C)c(NC(=O)OC(C)(C)C)c(C)c1 | 73 to 73.5 |
| COCOc1ccc2sc(C=O)cc2c1 | 81 to 82 |
| CCc1c(C(=O)C(N)=O)c2c(N)cccc2n1Cc1ccccc1 | 140 to 144 |
| CCc1ccc(C(=O)CCCCCN2CCC(CNC(=O)c3cc(Cl)c(N)cc3OC)CC2)cc1 | 140 to 145 |
| CCN1c2nc(Cl)ccc2NC(=O)c2cc(CCc3ccncc3)cnc21 | 194 to 196 |
| COc1cccc(Oc2c(NS(=O)(=O)c3ccc(C(C)(C)C)cc3)ncnc2OCCOc2cccnn2)c1 | 170 |
| Cn1c(/C=C/C(O)CC(O)CC(=O)O)c(-c2ccccc2)c2ccccc2c1=O (stereo not given) | 170 |
| O=C(CCCc1cnoc1-c1ccccc1)Nc1ccc(-n2ccnc2)cc1 | 132 to 133 |
| CCCn1cc(C(=O)O)c2ccc(Cl)cc21 | 179 to 180 |
| COc1cc2nc(N)nc(-c3ccc(O)c(I)c3)c2cc1OC | 248 to 250 |
| CC(C)(C)c1cc(/C=C(\C#N)C(N)=S)cc(C(C)(C)C)c1O | 210 |
| CCOC(=O)c1oc2c(-c3ccc(F)cc3)c(-c3ccc(S(C)(=O)=O)cc3)nn2c1C | 203 to 204 |
| COc1cc(Nc2nccc(-c3ccc(CN)cc3)n2)cc(OC)c1OC | 143 to 144 |
| CCCCCC(O)C1C(=O)NC(C(=O)SCc2ccccc2)(C(O)C2C=CCCC2)C1(C)O (stereo not given) | 123 |
| CC1(C)OC(c2ccc(S(N)(=O)=O)c(Cl)c2)=C(c2ccccc2)C1=O | 193 to 194 |
| BrCc1c(Br)c(Br)c(CBr)c(Br)c1Br | 268 to 271 |

| Compound | melting point [°C] |
| --- | --- |
| COc1ccc(CSc2nnc(-c3ccc4ncsc4c3)o2)cc1C#N | 181 to 182 |
| Cc1nc2ccccc2n1CCCNCC(O)COc1ccc(CC(N)=O)cc1 (stereo not given) | 146 to 149 |
| O=C(CCN1CCC(C(O)c2ccc3ccccc3c2)CC1)Cc1ccc(F)cc1 (stereo not given) | 100 to 102 |
| CC(=O)n1c(C(=O)O)cc2cc3c(cc21)OCO3 | 164 to 166 |
| COc1ccccc1N(CC(=O)OC(C)(C)C)C(=O)CN1C(=O)c2ccccc2C1=O | 144 |
| O=[N+]([O-])c1ccc(NCCNS(=O)(=O)c2ccccc2)cc1 | 171 |
| CC(C)(C)c1cc(-c2nn(C(=O)c3cccs3)c3ncccc23)cc(C(C)(C)C)c1O | 240 to 242 |
| O=C(O)c1ccc2c(c1)nc(-c1ccc(Oc3cccc(-c4cccc(Cl)c4)c3)cc1)n2C1CCCCC1 | 253 to 254 |
| O=C(NCCc1c[nH]c2ccc(C(=O)Nc3ccccc3)cc12)OCc1ccccc1 | 136 to 138 |
| COC(=O)c1ccc(C)cc1N | 41 to 43 |
| CC(=O)Nc1ccc(OCCCCBr)c([N+](=O)[O-])c1 | 192 to 194 |
| CC(Oc1ccc([N+](=O)[O-])cc1)C(=O)O (stereo not given) | 139 to 141 |
| CCC1N=NC(c2ccccc2)=C(O)N1C (stereo not given) | 122 |
| Cc1cccc(-n2c(-c3cc(-c4ccncc4)c(N4CCOCC4)s3)nc3ccccc3c2=O)c1 | 230 to 232 |
| COc1nc(Cl)nc(NC(C#N)C#N)n1 | 164 to 166 |
| CCCC(=O)NCCCCn1c(C)nc2c(N)nc3ccccc3c21 | 169 to 170 |
| CC(O)/C=C/c1ncn2c1CN(C)C(=O)c1c(Cl)cccc1-2 (stereo not given) | 232 to 233 |
| CCC(CC)C(NC(=O)c1ccc(Cl)cc1)Nc1c(Nc2cccnc2)c(=O)c1=O (stereo not given) | 232 to 233 |
| CCOC(=O)C1=NN(C(=O)c2ccccc2)C(C(=O)OCC)=NN1C(=O)c1ccccc1 | 134 |
| FC(F)(F)c1cccc(CSc2nnc(-c3ccc4ncc(-c5ccccn5)n4c3)o2)c1 | 181 to 182 |
| N#CC(C#N)=CN(N=C(C#N)C#N)c1ccc(F)cc1 | 138 to 139 |
| CCOC(=O)C1=C(C)S(=O)CCS1(=O)=O (stereo not given) | 138 to 140 |
| CCCCCCCCCCCc1nnc2n1-c1sc(CC)cc1C(c1ccc(O)cc1)=NC2 | 164 to 166 |
| Cc1nc(-n2cnn(CCOCc3ccc(F)cc3)c2=O)sc1C(=O)NCc1cccnc1 | 235 to 236 |
| Oc1cccc(O)c1Cl | 97 |

| Compound | melting point [°C] |
| --- | --- |
| NC(=O)N1C(=O)C(C(=O)c2cccs2)c2ncc(F)cc21 (stereo not given) | 265 |
| CCOC(=O)C1CCCN2CCC3c4cc(Cl)ccc4NC3C12 (stereo not given) | 124 |
| O=[N+]([O-])c1ccc(-c2nc(-c3cccs3)no2)cc1 | 169 to 171 |
| CN(C1CC(C)(C)Oc2ccc(O)cc21)S(C)(=O)=O (stereo not given) | 159 to 161 |
| C=C1CC(c2cnc(-c3ccccc3Cl)s2)N(C)C1=O (stereo not given) | 96 to 105 |
| O=C(O)c1cc(C(F)(F)F)cc(S(=O)(=O)Cc2ccccc2)c1 | 184 to 186 |
| CCCCC(CC)COc1ccc2c(-c3ccc(CO)cc3)c3cc(OCC(CC)CCCC)ccc3c(-c3ccc(CO)cc3)c2c1 (stereo not given) | 110 to 112 |
| O=C1NC(=O)C(=Cc2ccc(SCc3ccccc3)cc2)S1 | 237 to 238 |
| CCOc1cc2c(cc1OCC)C1CN(C)CCC1N=C2c1ccc(C#N)cc1 (single isomer, unassigned; (-)) | 141 |
| CCOC(=O)c1c[nH]cc1-c1ccccc1[N+](=O)[O-] | 159 to 161 |
| CCCc1nn(C)c2c(-c3ccc(S(C)(=O)=O)cc3)nc(-c3ccc(F)cc3)nc12 | 208 to 210 |
| Cc1cn([C@H]2CC[C@H](CC(=O)O)C[C@@H]2NC(=O)OC(C)(C)C)c(=O)[nH]c1=O | 231 to 233 |
| CON=C(C(=O)OC)c1nsc(N)n1 | 172 to 174 |
| CN1C(=O)[C@@H](NC(=O)C=Cc2ccccc2)N=C(c2ccccc2)c2ccccc21 | 126 to 140 |
| N#CC=Cc1ccc(N)cc1 | 109 to 110 |
| Clc1c[nH]c2ncnc(N3CCCCC3)c12 | 170 to 172 |
| O=Cc1ccc(C(=O)Nc2ccncc2)cc1 | 161 |
| Cc1c(/C=C/C(=O)c2ccccc2)ncn1C(c1ccccc1)(c1ccccc1)c1ccccc1 | 209 to 211 |
| O=C(O)C=CC(=O)c1ccc(Oc2ccccc2Cl)cc1 | 145 to 147 |
| [N-]=[N+]=NC(C(=O)O)c1ccsc1 (stereo not given) | 58 to 59 |
| CCOC(=O)c1ncn2c1[C@@H]1CCN1C(=O)c1c(Cl)cccc1-2 | 184 to 185 |
| CCCN1CCN(C2=Nc3cc(Br)ccc3N3CCc4cccc2c43)CC1 | 134 to 136 |
| Nc1cc(C#Cc2ccc3c(C(=O)Nc4cccc(C(F)(F)F)c4)cccc3c2)ncn1 | 217 to 220 |
| CCOC(=O)Cc1csc(-c2c(O)cccc2O)n1 | 152 to 154 |
| COc1cc2c(cc1OCCN(C)C)N(C(=O)c1ccc(-c3ccc(-c4noc(C)n4)cc3C)cc1)CCC2 | 139 to 141 |

| Compound | melting point [°C] |
| --- | --- |
| CC(COc1ccc(/C=C/C(=O)O)cc1)N(C)C (stereo not given) | 231 |
| CCCCOc1nc(-c2ccco2)c2ncn(Cc3ccc(OC)cc3)c2n1 | 113 |
| COC(C)n1cc(C2=C(c3cn(C(C)OC)c4ccccc34)C(=O)NC2=O)c2ccccc21 (stereo not given) | 222 to 224 |
| Oc1ccccc1-n1nnc2cccnc21 | 165 to 166 |
| COc1ccc2c(c1)C(C)CCC2=O (stereo not given) | 57.5 to 58.5 |
| CN(C(=O)N[C@@H](Cc1ccc(NC(=O)c2c(Cl)cccc2Cl)cc1)C(=O)O)c1ccccc1C(=O)NCC1CCCCC1 | 201 |
| CCN(CC)C(=S)Oc1ccc2c(c1)Oc1ccccc1S2 | 121 to 123 |
| O=S(=O)(c1ccccc1)N1CCC(C(=NCc2ccccc2)c2ccc(F)cc2)CC1 | 153 to 155 |
| Cc1cc(-n2ccnc2)c2cccc(OCc3c(Cl)ccc(-n4cccc4CNC(=O)C=Cc4ccc(C(=O)O)cc4)c3Cl)c2n1 | 166 to 170 |
| Cc1cc(Cc2ccc(NS(C)(=O)=O)cc2F)n(C)c1C(=O)c1ccccc1 | 165 to 167 |
| CCCCCCCCCCCCCCOc1ccc2ccc(=O)oc2c1 | 59 to 60 |
| CCc1ccc(OC(=O)c2ccccc2)c(C(=O)c2ccc(Cl)cc2)c1 | 79 to 81 |
| Cc1nc(-c2ccc(O)cc2)[nH]c1Cl | 226 to 228 |
| O=[N+]([O-])c1ccc2c(c1)C[C@H]1CSC(=S)N1C2 | 220 |
| CCOP(=O)(/C=C/c1cn(-c2ccccc2)nc1OCc1ccc(OCc2nc(-c3ccc(C(=O)OC)cc3)oc2C)c(OC)c1)OCC | 129 to 130 |
| O=C1c2ccccc2C(=O)N1CC(Br)(c1ccccc1)C(Br)Br (stereo not given) | 175 to 176 |
| CCOC(=O)c1c(N(C(=O)OC(C)(C)C)C(=O)OC(C)(C)C)sc(C)c1C | 70 to 78 |
| O=C(NNC(=O)c1c(F)c(F)c(F)c(F)c1F)c1cc(Cl)ccc1Cl | 227 to 232 |
| COc1ccc2c(c1CCc1ccccc1)CCCC2=O | 102 to 105 |
| O=C(NC1=Nc2cc(O)ccc2C2=NCCN12)c1cccnc1 | 289 |
| CC(C)OC(=NC(=O)c1ccc(F)cc1)N1Cc2ccccc2-c2ccccc2C1 | 90 to 93 |
| O=C(CCCN1CCC(C(O)(c2ccccc2)c2ccccc2)CC1)c1ccc(N2CCCCC2)cc1 | 138 to 139 |
| CC(=NOc1ncc(F)c(N)n1)c1ccccc1 | 163 to 165 |
| COCc1nc(Cl)c(Oc2cc(OC)ccc2Cl)c(Cl)n1 | 105 |
| COc1ccccc1C(=O)Nc1ccccc1C(c1ccc(O)cc1)c1ccc(O)cc1 | 258 |
